According to article PMC10698194 (Nature Communications, 2023):
“And” between values parts separate entries of the source, which are not always exact repeats. Equal values may be shown once. Read-outs that look alike come from different tables or passages of the source. Bridge positions count the residues as written; N and C are the ends. Square brackets hold non-standard residues; d marks the D form. Peptide text beside a SMILES is read from it. * marks the point of attachment. X1 = C=CCN1CC[C@]23c4c5ccc(O)c4O[C@H]2[C@H](N*)CC[C@@]3(O)[C@H]1C5

How the values were obtained:
male SWISS mice [1] = experiment: Formalin test (pain behavior, phase II); assay type: in vivo, mouse; conditions: for Formalin test (duration of pain behaviour): individual mice, listed as DNCP-ß-NalA (1)
mouse KOR, Gαi1 = mouse KOR, Gαi1 (Mus musculus, UniProt P33534); experiment: TRUPATH BRET G protein assay, Gαi1; assay type: cell-based; conditions: read-out: Emax (%) Gαi1
human KOR WT [2] = biological target: T1, human KOR WT (Homo sapiens, UniProt P41145); experiment: BRET β-arrestin-2 biosensor assay; assay type: cell-based; conditions: KOR WT
T1 construct: FLAG; expressed in transfected cells; host or cells: HEK293T, transient

human KOR WT [3] = biological target: T1, human KOR WT; experiment: cAMP inhibition assay normalized to salvinorin A; assay type: cell-based; conditions: KOR WT; normalized to salvinorin A
human KOR D138A = biological target: T2, human KOR D138A (Homo sapiens, UniProt P41145, D138A); experiment: cAMP inhibition assay normalized to salvinorin A; assay type: cell-based
T2 construct: expressed in transfected cells

mouse KOR [4] = biological target: T3, mouse KOR (Mus musculus, UniProt P33534); experiment: cell-based; set-up: expressed in transfected cells; host or cells: HEK293T, transient; conditions: HEK-293T, read-out: Emax β-arrestin-2 recruitment
Target sequence in this assay (P33534 whole entry): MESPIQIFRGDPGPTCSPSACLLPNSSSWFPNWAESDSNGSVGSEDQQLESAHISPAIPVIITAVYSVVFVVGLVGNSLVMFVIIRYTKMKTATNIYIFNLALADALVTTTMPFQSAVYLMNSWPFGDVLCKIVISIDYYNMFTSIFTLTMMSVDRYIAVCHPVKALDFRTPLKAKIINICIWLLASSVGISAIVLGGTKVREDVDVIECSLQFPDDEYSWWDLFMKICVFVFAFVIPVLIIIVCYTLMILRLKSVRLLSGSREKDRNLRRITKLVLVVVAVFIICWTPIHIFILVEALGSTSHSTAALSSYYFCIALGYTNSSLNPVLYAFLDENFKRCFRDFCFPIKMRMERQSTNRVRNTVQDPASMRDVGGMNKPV
Target sequence in this assay (P32121 whole entry partner): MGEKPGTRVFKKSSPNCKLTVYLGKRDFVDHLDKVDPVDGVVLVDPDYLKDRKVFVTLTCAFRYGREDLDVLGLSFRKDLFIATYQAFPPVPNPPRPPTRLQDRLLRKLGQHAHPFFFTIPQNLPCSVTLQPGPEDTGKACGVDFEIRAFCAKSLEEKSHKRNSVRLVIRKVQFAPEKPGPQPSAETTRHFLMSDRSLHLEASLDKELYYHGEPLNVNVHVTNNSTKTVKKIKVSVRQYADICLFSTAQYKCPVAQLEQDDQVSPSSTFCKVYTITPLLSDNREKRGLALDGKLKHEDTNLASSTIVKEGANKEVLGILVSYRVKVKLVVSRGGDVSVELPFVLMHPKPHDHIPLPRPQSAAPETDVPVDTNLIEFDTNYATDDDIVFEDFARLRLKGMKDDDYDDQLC

human KOR Q115A [5] = biological target: T4, human KOR Q115A (Homo sapiens, UniProt P41145, Q115A); assay type: cell-based; conditions: HEK-293T
T4 construct: FLAG; expressed in transfected cells; host or cells: HEK293 / HEK293T, transient

mouse KOR [6] = biological target: T3, mouse KOR; experiment: cell-based; set-up: expressed in transfected cells; conditions: HEK-293T, read-out: Emax cAMP assay
Target sequence in this assay (P33534 whole entry): as the sequence (P33534 whole entry) above

[7] = Serum stability assay (HPLC)
Procedure: Blood was drawn from healthy volunteers devoid of any medication for 14 days from the antecubital vein using 21 G needles and collected in a serum clot activator tube (4 mL tubes, Greiner bio-one). […] Volunteers gave written informed consent before blood donation. […] Blood samples were collected into Vacuette® clot activator tubes (Greiner Bio-One, Austria). After clotting of about 2 h, the samples were centrifuged at 2200 × g for 15 min at 22 °C. The serum was removed and centrifuged again to remove lipids and cell particles at 16,000 × g at 4 °C for 20 min. […] The samples were incubated at 37 °C under continuous shaking at 300 rotations-per-minute. […] The samples were mixed well and incubated on ice for 10 min. For the protein precipitation, 30 µL of a 20% (w/v) trichloroacetic acid was added and incubated on ice for 15 min. The clear supernatant was harvested by centrifugation at 16,000 × g at 4 °C for 20 min and this sample was used for HPLC analysis. The chromatography HPLC system was a ThermoFisher Ultimate 3000 equipped with a pump, autosampler and single wavelength detector. […] The remaining peptide was calculated relative to the AUC at time point zero. The data points were fitted to a one-phase decay function and to determine the resulting half-life of the peptide in serum.
0.1% trifluoroacetic acid in water and acetonitrile/water trifluoroacetic acid 90/10/0.1% (v/v/v) with a
linear separation gradient over 30 min.

human KOR I316A = biological target: T5, human KOR I316A (Homo sapiens, UniProt P41145, I316A); experiment: BRET β-arrestin-2 biosensor assay; assay type: cell-based
T5 construct: FLAG; expressed in transfected cells; host or cells: HEK293 / HEK293T, transient

human KOR E297A [8] = biological target: T6, human KOR E297A (Homo sapiens, UniProt P41145, E297A); experiment: BRET β-arrestin-2 biosensor assay; assay type: cell-based; conditions: KOR E297A
T6 construct: FLAG; expressed in transfected cells; host or cells: HEK293T

mouse KOR, Gαgustducin = mouse KOR, Gαgustducin (Mus musculus, UniProt P33534); experiment: TRUPATH BRET G protein assay, Gαgustducin; assay type: cell-based; conditions: read-out: Emax (%) Gαgustducin
human KOR E297A [9] = biological target: T6, human KOR E297A; assay type: cell-based; conditions: HEK-293T, KOR E297A
human KOR L309A [10] = biological target: T7, human KOR L309A (Homo sapiens, UniProt P41145, L309A); experiment: BRET β-arrestin-2 biosensor assay; assay type: cell-based; conditions: KOR L309A
T7 construct: FLAG; expressed in transfected cells; host or cells: HEK293T

mouse MOR = biological target: T8, mouse MOR (Mus musculus, UniProt P42866); experiment: Schild regression vs DAMGO in cAMP assay, HEK293 cells; assay type: cell-based; conditions: for log (A'/A-1): Schild plot Figure S14c; for average functional affinity: from pA2
T8 construct: expressed in transfected cells

male SWISS mice [11] = experiment: Rotarod test (motor coordination/sedation); assay type: in vivo, mouse; conditions: DNCP-β-NalA(1) 3.8 and 7.6, U50,488 5.4 µmol kg^−1 s.c.
Procedure: The rotarod test was used to evaluate coordinated locomotion and potential sedation induced by test drugs. […] Male SWISS mice (8–10 weeks old, 30–35 g body weight, n = 21 mice) were habituated to the equipment in two training sessions (30 min apart) one day before testing. On the experimental day, male mice were placed on the rotarod, and treadmill was accelerated from 4 to 40 rotations-per-minute over a period of 5 min. […] Decreased latencies to fall in the rotarod test indicate impaired motor performance. A 300 s cut-off time was used. The rotarod data are expressed as percentage (%) changes from the rotarod latencies obtained before (baseline) and after drug administration (test, T) were calculated as 100*(T/B).

human KOR Q115A [12] = biological target: T4, human KOR Q115A; experiment: BRET β-arrestin-2 biosensor assay; assay type: cell-based
human KOR Y312A = biological target: T9, human KOR Y312A (Homo sapiens, UniProt P41145, Y312A); experiment: BRET β-arrestin-2 biosensor assay; assay type: cell-based
T9 construct: FLAG; expressed in transfected cells; host or cells: HEK293T

human KOR F293A = biological target: T10, human KOR F293A (Homo sapiens, UniProt P41145, F293A); experiment: BRET β-arrestin-2 biosensor assay; assay type: cell-based
T10 construct: FLAG; expressed in transfected cells; host or cells: HEK293 / HEK293T, transient

human KOR L309A [13] = biological target: T7, human KOR L309A; assay type: cell-based; conditions: HEK-293T, KOR L309A
human KOR Y320A = biological target: T11, human KOR Y320A (Homo sapiens, UniProt P41145, Y320A); experiment: BRET β-arrestin-2 biosensor assay; assay type: cell-based
T11 construct: FLAG; expressed in transfected cells; host or cells: HEK293 / HEK293T, transient

human KOR WT [14] = biological target: T1, human KOR WT; assay type: cell-based; conditions: HEK-293T, KOR WT
[15] = authors' response in peer review file

T8 sequence (P42866 whole entry): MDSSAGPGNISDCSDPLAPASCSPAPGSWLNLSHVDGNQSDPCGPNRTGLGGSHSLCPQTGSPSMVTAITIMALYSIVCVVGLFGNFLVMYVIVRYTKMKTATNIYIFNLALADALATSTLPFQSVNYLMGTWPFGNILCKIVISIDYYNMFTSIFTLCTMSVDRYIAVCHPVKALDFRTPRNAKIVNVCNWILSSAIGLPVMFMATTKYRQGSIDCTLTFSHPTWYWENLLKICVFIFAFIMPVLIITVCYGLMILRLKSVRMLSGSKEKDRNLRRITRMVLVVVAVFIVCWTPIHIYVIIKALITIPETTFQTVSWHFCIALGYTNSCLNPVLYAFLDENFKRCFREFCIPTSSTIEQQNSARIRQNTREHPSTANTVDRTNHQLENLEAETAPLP
T9 sequence (P41145 whole entry Y312A): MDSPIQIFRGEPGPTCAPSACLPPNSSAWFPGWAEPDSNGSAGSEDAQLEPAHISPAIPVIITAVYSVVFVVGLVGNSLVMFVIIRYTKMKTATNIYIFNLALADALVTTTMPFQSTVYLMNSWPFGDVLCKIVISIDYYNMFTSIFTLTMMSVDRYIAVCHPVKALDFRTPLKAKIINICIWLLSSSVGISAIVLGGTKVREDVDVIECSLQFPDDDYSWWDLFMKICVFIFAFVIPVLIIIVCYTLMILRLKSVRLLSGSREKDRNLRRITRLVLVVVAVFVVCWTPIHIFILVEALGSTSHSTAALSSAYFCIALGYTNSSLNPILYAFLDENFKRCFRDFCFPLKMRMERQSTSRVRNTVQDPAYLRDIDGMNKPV
T1 sequence (P41145 whole entry): as the sequence (P41145 whole entry Y312A) above, with A312Y counted along it
T4 sequence (P41145 whole entry Q115A): as the sequence (P41145 whole entry Y312A) above, with Q115A, A312Y counted along it
T6 sequence (P41145 whole entry E297A): as the sequence (P41145 whole entry Y312A) above, with E297A, A312Y counted along it
T7 sequence (P41145 whole entry L309A): as the sequence (P41145 whole entry Y312A) above, with L309A, A312Y counted along it
T2 sequence (P41145 whole entry D138A): as the sequence (P41145 whole entry Y312A) above, with D138A, A312Y counted along it
T5 sequence (P41145 whole entry I316A): as the sequence (P41145 whole entry Y312A) above, with A312Y, I316A counted along it
T11 sequence (P41145 whole entry Y320A): as the sequence (P41145 whole entry Y312A) above, with A312Y, Y320A counted along it
mouse KOR, Gαgustducin, sequence (P33534 whole entry): as the sequence (P33534 whole entry) above
mouse KOR, Gαgustducin, sequence (A8MTJ3 2-354 partner): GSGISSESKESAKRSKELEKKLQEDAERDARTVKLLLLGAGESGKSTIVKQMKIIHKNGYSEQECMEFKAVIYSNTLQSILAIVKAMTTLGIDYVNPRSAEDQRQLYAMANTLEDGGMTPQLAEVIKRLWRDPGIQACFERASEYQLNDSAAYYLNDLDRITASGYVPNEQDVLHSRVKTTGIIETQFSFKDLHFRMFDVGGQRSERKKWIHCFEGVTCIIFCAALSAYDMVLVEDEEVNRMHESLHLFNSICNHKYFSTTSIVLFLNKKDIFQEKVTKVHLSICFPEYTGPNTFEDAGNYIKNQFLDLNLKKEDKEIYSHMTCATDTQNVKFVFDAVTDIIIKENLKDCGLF
mouse KOR, Gαi1, sequence (P33534 whole entry): as the sequence (P33534 whole entry) above
mouse KOR, Gαi1, sequence (P63096 2-354 partner): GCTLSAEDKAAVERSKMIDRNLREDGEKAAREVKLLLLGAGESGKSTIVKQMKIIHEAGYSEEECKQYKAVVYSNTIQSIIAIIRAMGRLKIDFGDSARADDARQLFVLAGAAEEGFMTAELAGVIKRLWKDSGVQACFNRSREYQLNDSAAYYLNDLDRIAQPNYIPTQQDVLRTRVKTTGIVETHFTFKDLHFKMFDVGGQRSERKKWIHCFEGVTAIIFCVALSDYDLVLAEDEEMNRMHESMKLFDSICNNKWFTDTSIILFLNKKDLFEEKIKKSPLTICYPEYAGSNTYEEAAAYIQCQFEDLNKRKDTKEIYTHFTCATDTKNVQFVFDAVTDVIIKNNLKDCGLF
T10 sequence (P41145 whole entry F293A): as the sequence (P41145 whole entry Y312A) above, with F293A, A312Y counted along it

C=CCN1CC[C@]23c4c5ccc(O)c4O[C@H]2[C@H](NC(=O)[C@@H](Cc2ccccc2)NC(=O)[C@@H](NC(=O)[C@@H]2CSCC(=O)N[C@@H](Cc4ccc(O)cc4)C(=O)N[C@@H](C)C(=O)N[C@H](Cc4ccc(O)cc4)C(=O)N[C@@H]([C@@H](C)O)C(=O)N[C@@H]([C@@H](C)O)C(=O)N2)[C@@H](C)O)CC[C@@]3(O)[C@H]1C5 [DNCP-β-NalA(1)] ({CH2CO}-YA[dY]TTCT[dF]-X1; thioether N-6)
Formalin test (duration of pain behaviour) (male SWISS mice [1]; 0.8 µmol/kg): 234 s and 278 s and 189 s and 251 s and 382 s and 247 s | Formalin test (duration of pain behaviour) (male SWISS mice [1]; 1.9 µmol/kg): 208 s and 50 s and 189 s and 169 s and 167 s and 252 s | antagonism of antinociception by nor-BNI (male SWISS mice [1]; nor-BNI 13.6 µmol kg^−1 s.c. pretreatment): significantly reversed the antinociceptive response | antinociceptive ED50 (male SWISS mice [1]; s.c., male mice): 1.89 µmol/kg | effect on pain behavior (male SWISS mice [1]; s.c., male mice): dose-dependent reduction in the pain behavior | Emax (mouse KOR, Gαi1): 81% | Emax (human KOR WT [2]): 35.3 ± 1.13% | Emax (human KOR WT [3]): 100.6 ± 0.9% | reduction of cAMP inhibition potency (human KOR D138A; D138A vs WT, authors' response): 17 fold | Emax (human KOR D138A; KOR D138A, normalized to salvinorin A): 105 ± 2.4% | Emax (mouse KOR [4]): 41% | Emax (human KOR Q115A [5]): 90.2 ± 1.46% | Emax (mouse KOR [6]): 92 ± 1% | serum stability, amount remaining, Figure S15 ([7]; Time (min) 0): 100 | stable in serum [7, 15]: at least 50 h | remaining at 5 min, 50 µM ([7]; human, human serum, serum stability, amount remaining, Figure S15, Time (min) 5): 94% | remaining at 10 min, 50 µM ([7]; human, human serum, serum stability, amount remaining, Figure S15, Time (min) 10): 94% | remaining at 20 min, 50 µM ([7]; human, human serum, serum stability, amount remaining, Figure S15, Time (min) 20): 99% | remaining at 40 min, 50 µM ([7]; human, human serum, serum stability, amount remaining, Figure S15, Time (min) 40): 96% | remaining at 1 h, 50 µM ([7]; human, human serum, serum stability, amount remaining, Figure S15, Time (min) 60): 106% | remaining at 2 h, 50 µM ([7]; human, human serum, serum stability, amount remaining, Figure S15, Time (min) 120): 98% | remaining at 4 h, 50 µM ([7]; human, human serum, serum stability, amount remaining, Figure S15, Time (min) 240): 101% | remaining at 6 h, 50 µM ([7]; human, human serum, serum stability, amount remaining, Figure S15, Time (min) 360): 99% | remaining at 24 h, 50 µM ([7]; human, human serum, serum stability, amount remaining, Figure S15, Time (min) 1440): 98% | remaining at 48 h, 50 µM ([7]; human, human serum, serum stability, amount remaining, Figure S15, Time (min) 2880): 96% | remaining at 48 h, 50 µM ([7]; human, human serum, serum stability, remaining intact, after 48 h, 37 °C): > 95% | Emax (human KOR I316A): 22.7 ± 1.59% | Emax (human KOR E297A [8]): 64.6 ± 1.35% | Emax (mouse KOR, Gαgustducin): 101 ± 5% | Emax (human KOR E297A [9]): 96.28 ± 0.53% | Emax (human KOR L309A [10]): 62.2 ± 1.08% | log (A'/A-1) (mouse MOR; log B -6.5): 2.497 | log (A'/A-1) (mouse MOR; log B -7): 1.821 | log (A'/A-1) (mouse MOR; log B -7.5): 1.578 | log (A'/A-1) (mouse MOR; log B -8): 1.074 | average functional affinity (mouse MOR): 0.8 nM | average functional affinity (mouse MOR; [15]): 0.794 nM | Schild linear regression slope (mouse MOR; vs DAMGO): 0.9 | rotarod performance / motor behavior (male SWISS mice [11]): no changes in the motor behavior | Emax (human KOR Q115A [12]): 60 ± 1.71% | Emax (%) β-arrestin-2 (human KOR Y312A): devoid of arrestin recruitment | BRET-βarr2 recruitment (human KOR Y312A; Log [ligand] (M) -5, replicates): 0.2189 and 0.2059 and 0.2229 and 0.2169 | BRET-βarr2 recruitment (human KOR Y312A; Log [ligand] (M) -7, replicates): 0.2499 (2×) and 0.2479 and 0.2279 and 0.2289 and 0.2269 | BRET-βarr2 recruitment (human KOR Y312A; Log [ligand] (M) -8, replicates): 0.2479 and 0.2309 and 0.2579 and 0.2119 and 0.2179 and 0.2099 | BRET-βarr2 recruitment (human KOR Y312A; Log [ligand] (M) -9, replicates): 0.2369 and 0.2529 and 0.2379 and 0.2309 and 0.2499 and 0.2069 | BRET-βarr2 recruitment (human KOR Y312A; Log [ligand] (M) -10, replicates): 0.2429 and 0.2419 and 0.2489 and 0.2119 and 0.2309 and 0.2049 | BRET-βarr2 recruitment (human KOR Y312A; Log [ligand] (M) -11, replicates): 0.2319 and 0.2289 and 0.2379 and 0.2249 and 0.2229 and 0.2019 | BRET-βarr2 recruitment (human KOR Y312A; Log [ligand] (M) -12, replicates): 0.2219 and 0.2179 and 0.2429 and 0.2239 and 0.2299 and 0.2119 | Emax (human KOR F293A): 26.5 ± 1.01% | Emax (human KOR L309A [13]): 95.98 ± 0.44% | Emax (human KOR Y320A): 83.5 ± 4.81% | Emax (human KOR WT [14]): 85.9 ± 1.2%
